The source made the active and inactive calls.
Key:
[1] = target: T1, Short transient receptor potential channel 4 (Mus musculus, UniProt Q9QUQ5); experiment: mouse TRPC4 channel activators, dose response, cell-based, HEK293 TRPC4/mu-opioid, Fluo-4 calcium (AID 434937); format: functional
T1 sequence (Q9QUQ5 whole entry): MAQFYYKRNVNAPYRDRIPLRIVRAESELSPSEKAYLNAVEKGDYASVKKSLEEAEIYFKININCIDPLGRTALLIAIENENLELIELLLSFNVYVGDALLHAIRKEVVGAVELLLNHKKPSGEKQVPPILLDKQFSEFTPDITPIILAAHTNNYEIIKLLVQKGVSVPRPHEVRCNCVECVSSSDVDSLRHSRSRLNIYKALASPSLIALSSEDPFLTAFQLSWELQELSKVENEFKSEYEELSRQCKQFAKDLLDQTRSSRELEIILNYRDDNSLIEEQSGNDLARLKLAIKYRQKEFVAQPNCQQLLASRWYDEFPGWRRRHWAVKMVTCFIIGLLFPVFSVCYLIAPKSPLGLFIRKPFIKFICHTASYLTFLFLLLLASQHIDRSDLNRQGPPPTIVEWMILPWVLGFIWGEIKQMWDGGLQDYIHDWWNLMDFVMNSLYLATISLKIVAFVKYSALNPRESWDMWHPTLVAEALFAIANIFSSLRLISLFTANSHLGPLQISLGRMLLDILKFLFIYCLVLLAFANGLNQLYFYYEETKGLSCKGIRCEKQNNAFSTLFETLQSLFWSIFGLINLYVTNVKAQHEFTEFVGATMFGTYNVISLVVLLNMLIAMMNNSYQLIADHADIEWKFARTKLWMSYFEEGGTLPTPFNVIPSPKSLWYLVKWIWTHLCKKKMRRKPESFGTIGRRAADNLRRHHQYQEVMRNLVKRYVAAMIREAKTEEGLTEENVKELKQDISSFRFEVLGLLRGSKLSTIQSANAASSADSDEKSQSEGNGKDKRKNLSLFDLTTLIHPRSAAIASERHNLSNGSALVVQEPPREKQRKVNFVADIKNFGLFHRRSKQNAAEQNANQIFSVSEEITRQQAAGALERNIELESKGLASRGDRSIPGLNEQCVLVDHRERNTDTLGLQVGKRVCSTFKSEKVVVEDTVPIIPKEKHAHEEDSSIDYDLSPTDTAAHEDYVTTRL

[2] = target: T2, Hexokinase (Trypanosoma brucei, UniProt Q38C41); experiment: Confirmation assay for inhibitors of Trypanosoma brucei hexokinase 1-Analogue-first series. [Related pubchem assays (depositor defined):AID1430, AID1632, AID2516, AID2560, AID2579, AID2600, AID449725, AID492951]; format: functional
T2 sequence (Q38C41 whole entry): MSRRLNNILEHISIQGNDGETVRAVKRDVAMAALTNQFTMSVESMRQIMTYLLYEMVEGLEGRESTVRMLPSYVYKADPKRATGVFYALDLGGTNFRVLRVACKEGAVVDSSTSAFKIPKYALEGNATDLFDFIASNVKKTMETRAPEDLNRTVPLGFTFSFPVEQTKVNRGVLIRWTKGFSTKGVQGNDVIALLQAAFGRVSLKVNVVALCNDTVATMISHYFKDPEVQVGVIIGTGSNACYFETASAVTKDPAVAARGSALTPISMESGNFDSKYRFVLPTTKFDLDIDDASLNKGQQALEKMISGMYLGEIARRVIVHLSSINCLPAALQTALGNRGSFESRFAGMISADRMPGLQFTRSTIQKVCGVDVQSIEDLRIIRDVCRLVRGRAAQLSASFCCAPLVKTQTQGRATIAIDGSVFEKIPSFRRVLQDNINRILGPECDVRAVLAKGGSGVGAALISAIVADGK

[3] = target: Estrogen receptor beta (Homo sapiens, UniProt Q92731);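 note: recombinant ER-beta bound to coactivator SRC1 peptide in presence of estradiol agonist; inhibitors block coactivator peptide binding and lower the FRET signal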
Chain of Estrogen receptor beta (Q92731 whole entry): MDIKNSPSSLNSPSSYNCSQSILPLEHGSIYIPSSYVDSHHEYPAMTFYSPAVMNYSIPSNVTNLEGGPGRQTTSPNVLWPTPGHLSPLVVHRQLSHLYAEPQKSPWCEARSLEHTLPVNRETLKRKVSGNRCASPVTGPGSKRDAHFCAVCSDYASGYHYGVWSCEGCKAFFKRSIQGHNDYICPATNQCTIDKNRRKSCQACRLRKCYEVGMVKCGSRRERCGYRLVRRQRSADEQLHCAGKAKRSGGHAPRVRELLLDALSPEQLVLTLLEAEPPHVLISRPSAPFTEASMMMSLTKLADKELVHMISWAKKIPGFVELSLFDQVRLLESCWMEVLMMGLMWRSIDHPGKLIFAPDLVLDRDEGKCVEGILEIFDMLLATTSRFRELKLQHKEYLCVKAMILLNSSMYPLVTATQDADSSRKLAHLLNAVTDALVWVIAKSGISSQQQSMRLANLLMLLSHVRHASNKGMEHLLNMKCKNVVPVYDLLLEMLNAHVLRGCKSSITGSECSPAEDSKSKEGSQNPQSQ

[4] = target: Nonstructural protein 1 (Influenza A virus, UniProt Q194T2); format: functional, Influenza A virus (A/California/07/2009(H1N1))
Chain of Nonstructural protein 1 (Q194T2 whole entry): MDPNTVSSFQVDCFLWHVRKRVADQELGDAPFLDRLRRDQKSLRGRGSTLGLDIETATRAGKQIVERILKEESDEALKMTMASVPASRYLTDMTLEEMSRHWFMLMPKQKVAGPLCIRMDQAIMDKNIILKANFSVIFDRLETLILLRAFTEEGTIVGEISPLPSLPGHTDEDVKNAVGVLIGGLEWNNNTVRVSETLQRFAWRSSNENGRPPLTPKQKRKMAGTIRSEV

[5] = A cytotoxicity screen of small molecule inhibitors of the PhoP region in Salmonella typhi identified in the primary screen. [Related pubchem assays: 1850, 1864, 1985 ]; format: functional
[6] = target: Cytochrome P450 2C19 (Homo sapiens, UniProt P33261); experiment: Cytochrome panel assay with activity outcomes. Panel member name: p450-cyp2c19 Compounds with AC50 equal or less than 10 uM are considered active; format: functional; conditions: read-out: AC50
Chain of Cytochrome P450 2C19 (P33261 whole entry): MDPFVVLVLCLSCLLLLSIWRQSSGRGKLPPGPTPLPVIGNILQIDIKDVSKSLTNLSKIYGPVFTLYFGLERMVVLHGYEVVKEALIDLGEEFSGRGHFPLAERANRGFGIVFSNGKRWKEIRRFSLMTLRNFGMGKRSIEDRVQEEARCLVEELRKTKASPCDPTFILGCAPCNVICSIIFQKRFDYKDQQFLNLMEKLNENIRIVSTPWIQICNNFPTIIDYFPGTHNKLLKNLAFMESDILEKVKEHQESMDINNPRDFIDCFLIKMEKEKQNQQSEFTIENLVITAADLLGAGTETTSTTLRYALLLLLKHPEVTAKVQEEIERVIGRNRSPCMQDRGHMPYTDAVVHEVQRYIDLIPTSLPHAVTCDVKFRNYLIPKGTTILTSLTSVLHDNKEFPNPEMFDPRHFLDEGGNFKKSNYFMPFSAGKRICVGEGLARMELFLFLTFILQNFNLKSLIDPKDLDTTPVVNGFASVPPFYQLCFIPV

[7] = target: T3, Protein Tat (Human immunodeficiency virus type 1 group M subtype B (isolate HXB2)(HIV-1), UniProt P04608); format: functional;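 note: tat binding to TAR RNA read out by fluorescence polarization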
T3 sequence (P04608 whole entry): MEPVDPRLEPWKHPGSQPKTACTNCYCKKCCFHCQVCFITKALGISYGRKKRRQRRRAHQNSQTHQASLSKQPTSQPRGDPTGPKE

[8] = target: T4, Histone-lysine N-methyltransferase NSD2 (Homo sapiens, UniProt O96028); format: biochemical
T4 sequence (O96028 whole entry): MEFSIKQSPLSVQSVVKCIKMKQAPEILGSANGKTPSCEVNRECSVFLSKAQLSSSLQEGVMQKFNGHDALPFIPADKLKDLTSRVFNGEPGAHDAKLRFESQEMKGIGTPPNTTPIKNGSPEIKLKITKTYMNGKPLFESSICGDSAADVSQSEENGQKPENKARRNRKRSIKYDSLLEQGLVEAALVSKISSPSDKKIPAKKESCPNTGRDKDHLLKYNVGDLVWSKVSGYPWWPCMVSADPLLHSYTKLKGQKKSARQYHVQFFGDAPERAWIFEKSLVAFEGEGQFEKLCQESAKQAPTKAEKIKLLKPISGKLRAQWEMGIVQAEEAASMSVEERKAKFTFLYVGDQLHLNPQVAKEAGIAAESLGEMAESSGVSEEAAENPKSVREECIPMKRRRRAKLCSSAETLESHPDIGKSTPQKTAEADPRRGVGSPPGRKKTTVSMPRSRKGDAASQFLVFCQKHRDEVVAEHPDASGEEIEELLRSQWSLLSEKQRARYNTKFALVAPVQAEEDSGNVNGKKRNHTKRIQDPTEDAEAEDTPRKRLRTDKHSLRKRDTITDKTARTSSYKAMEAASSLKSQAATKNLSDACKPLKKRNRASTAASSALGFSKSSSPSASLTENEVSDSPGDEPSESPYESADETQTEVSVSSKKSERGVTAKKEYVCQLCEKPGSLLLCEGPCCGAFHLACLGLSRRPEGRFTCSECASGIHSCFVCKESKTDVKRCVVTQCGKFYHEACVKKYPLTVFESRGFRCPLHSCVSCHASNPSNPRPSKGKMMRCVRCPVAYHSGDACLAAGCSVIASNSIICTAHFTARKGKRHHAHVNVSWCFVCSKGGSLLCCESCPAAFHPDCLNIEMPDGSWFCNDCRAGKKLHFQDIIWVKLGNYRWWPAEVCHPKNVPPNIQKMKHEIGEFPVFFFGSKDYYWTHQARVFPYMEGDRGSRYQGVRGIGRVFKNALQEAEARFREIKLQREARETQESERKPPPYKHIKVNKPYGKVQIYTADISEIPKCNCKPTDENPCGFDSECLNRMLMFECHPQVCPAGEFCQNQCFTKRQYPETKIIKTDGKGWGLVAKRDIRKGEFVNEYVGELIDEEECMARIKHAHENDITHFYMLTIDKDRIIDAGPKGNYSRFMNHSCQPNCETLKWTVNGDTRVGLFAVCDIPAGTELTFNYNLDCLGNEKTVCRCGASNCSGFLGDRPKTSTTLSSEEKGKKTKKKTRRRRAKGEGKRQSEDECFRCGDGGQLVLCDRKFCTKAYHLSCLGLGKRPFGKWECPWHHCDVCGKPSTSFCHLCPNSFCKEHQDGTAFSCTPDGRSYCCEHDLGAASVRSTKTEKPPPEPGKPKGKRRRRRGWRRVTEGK

[9] = cells; format: functional, cell-based
[10] = target: T5, Carboxy-terminal domain RNA polymerase II polypeptide A small phosphatase 1 (Homo sapiens, UniProt Q9GZU7); experiment: inhibitors of CTDSP1, concentration-response testing, biochemical assay, absorbance-based, actives from ultra-high-throughput screening (AID 540297); format: functional
T5 sequence (Q9GZU7 whole entry): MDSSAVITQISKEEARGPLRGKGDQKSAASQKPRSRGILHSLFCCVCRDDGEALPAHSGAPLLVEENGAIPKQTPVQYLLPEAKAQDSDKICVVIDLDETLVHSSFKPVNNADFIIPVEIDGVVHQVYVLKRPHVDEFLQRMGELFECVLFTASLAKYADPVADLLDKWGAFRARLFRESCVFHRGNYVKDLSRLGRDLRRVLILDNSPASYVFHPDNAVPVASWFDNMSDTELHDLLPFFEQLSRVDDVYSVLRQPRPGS

[11] = cells; format: functional, cell-based; remark: listed apart in the source
[12] = target: T6, RNA-binding protein pos-1 (Caenorhabditis elegans, UniProt G5EF15); experiment: inhibitors of POS-1/mex-3 RNA binding, dose response, biochemical, fluorescence polarization (AID 1964);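 note: purified POS-1 fused to maltose binding protein made in E. coli; potency of compounds blocking POS-1 binding to fluorescent RNA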
T6 sequence (G5EF15 whole entry): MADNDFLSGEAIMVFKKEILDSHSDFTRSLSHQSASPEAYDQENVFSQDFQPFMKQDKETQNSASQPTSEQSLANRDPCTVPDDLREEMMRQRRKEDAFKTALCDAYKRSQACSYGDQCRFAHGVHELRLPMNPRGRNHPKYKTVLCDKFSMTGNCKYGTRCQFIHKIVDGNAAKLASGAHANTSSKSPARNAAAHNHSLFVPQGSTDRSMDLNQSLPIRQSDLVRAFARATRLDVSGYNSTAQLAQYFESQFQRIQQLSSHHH

[13] = target: T7, Zinc finger protein mex-5 (Caenorhabditis elegans, UniProt Q9XUB2); experiment: MEX-5/TCR-2 RNA interaction inhibitors, dose response, biochemical, C. elegans, fluorescence polarization (AID 1960)
T7 sequence (Q9XUB2 whole entry): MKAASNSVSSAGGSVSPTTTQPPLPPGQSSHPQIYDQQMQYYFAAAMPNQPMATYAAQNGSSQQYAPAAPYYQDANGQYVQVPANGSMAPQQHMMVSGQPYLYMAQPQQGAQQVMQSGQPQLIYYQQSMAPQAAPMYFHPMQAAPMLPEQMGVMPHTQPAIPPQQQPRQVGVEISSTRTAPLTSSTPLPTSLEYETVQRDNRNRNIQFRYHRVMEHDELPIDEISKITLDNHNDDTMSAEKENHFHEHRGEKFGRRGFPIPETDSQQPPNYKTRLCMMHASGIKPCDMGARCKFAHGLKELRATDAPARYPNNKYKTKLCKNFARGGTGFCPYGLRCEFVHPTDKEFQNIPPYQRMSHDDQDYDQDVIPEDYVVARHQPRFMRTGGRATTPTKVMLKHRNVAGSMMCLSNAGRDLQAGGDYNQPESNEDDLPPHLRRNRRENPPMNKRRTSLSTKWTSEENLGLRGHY

[14] = cytotoxicity in OVCAR8 ovarian cancer cells, dose response, PAX8 project, cell-based, plate reader, dry powder samples (AID 743197); format: functional; conditions: OVCAR-8
[15] = target: Paired box protein Pax-8 (Homo sapiens, UniProt Q06710); experiment: inhibitors of PAX8-driven TPO luciferase reporter, dose response, RMG-I cells, cherry-pick (AID 687027); format: functional, cell-based;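 note: luciferase reporter driven by Pax8 target thyroperoxidase promoter measured by SteadyGlo luminescence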
Chain of Paired box protein Pax-8 (Q06710 whole entry): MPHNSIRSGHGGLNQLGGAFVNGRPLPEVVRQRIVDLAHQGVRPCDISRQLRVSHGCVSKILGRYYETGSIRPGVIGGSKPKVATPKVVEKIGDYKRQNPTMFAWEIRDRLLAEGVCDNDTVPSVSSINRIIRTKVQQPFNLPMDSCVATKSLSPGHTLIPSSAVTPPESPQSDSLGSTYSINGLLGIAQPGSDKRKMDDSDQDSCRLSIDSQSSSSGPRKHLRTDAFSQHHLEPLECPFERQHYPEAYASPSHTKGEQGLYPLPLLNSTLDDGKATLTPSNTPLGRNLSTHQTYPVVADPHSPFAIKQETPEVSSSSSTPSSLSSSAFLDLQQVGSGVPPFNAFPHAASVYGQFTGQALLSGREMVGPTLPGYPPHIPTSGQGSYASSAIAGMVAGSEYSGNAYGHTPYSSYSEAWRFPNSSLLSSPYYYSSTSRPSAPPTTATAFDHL

COC(=O)c1ccc(N2CCN(C)CC2)c(NC(=O)c2ccc(Br)o2)c1
EC50 [1]: 5.96 µM (active)

Cn1sc(=O)c2ccccc21
IC50 [2]: > 25 µM (inactive)

O=C(Nc1ccc(O)cc1C(=O)O)c1ccc2c(c1)C(=O)N(Cc1ccco1)C2=O
IC50 [3]: 13.8 µM (active)

CN1CC(C(=O)c2ccc(Cl)cc2)C(c2ccc(N(C)C)cc2)C1 (stereo not given)
IC50 [4]: 43.8 µM (active)

Cc1nccn1-c1ncnc2sc3c(c12)CCCC3
IC50 [3]: > 50 µM (not active)

O=C(N/N=C/c1ccccn1)c1ccc(Br)o1
EC50 [5]: > 50 µM (active) | AC50 [6]: 35.5 µM (inconclusive)

[O-][n+]1c2ccccc2cc2ccccc21
EC50 [5]: > 50 µM (active)

CCc1ccc2nc(N3CCN(C)CC3)c(C#N)cc2c1
IC50 [7]: > 100 µM (active)

O=C(O)c1cccc(-n2cccc2/C=C2/SC(=O)N(CC(=O)N3CCCC3)C2=O)c1
AC50 [8]: > 20 µM (inactive) | EC50 [9]: > 350 µM (not active) | IC50 [10]: 5.53 µM (active) | EC50 [11]: > 350 µM (not active) | EC50 [12]: > 300 µM (not active) | EC50 [13]: > 300 µM (not active)

Cc1ccc(C(=O)Nc2cc(Cl)ccc2C(=O)O)cc1
IC50 [2]: 13.8 µM (active)

CCN1C(c2ccccc2)=C(c2ccccc2)S/C1=C/C=C1\SC(=S)N(C)C1=O
IC50 [4]: 7.78 µM (active)

CC(C(=O)NC1CCS(=O)(=O)C1)N1C(=O)/C(=C/c2ccc(Cl)cc2)SC1=S (stereo not given)
EC50 [5]: > 50 µM (active)

Brc1ccc2nc(-c3c[nH]c4ccccc34)cn2c1
EC50 [5]: > 50 µM (active)

O=C1[C@@H]2C(Cc3ccc(O)cc3)NC3(C(=O)Nc4ccc(F)cc43)[C@@H]2C(=O)N1c1ccc(F)cc1 (stereo not given in full)
IC50 [7]: > 100 µM (active)

COc1ccc(CC(=O)NCC(c2ccc(OC)cc2)N(C)C)cc1 (stereo not given)
EC50 [1]: 0.668 µM (active)

N=c1c(C(=O)NCC2CCCO2)cc2c(=O)n3ccccc3nc2n1Cc1ccc(Cl)cc1 (stereo not given)
EC50 [5]: > 50 µM (active)

COC(=O)c1ccc(Cl)cc1NC(=O)c1ccc(OC)cc1
IC50 [2]: > 25 µM (inactive)

C=C(C)c1ccc(C(=O)Nc2cc(Cl)ccc2C(=O)O)cc1
IC50 [2]: 7.16 µM (active)

C[C@@H]1CN([C@@H](C)CO)C(=O)Cc2cc(NC(=O)Nc3ccc(C(F)(F)F)cc3)ccc2O[C@H]1CN(C)C(=O)Nc1ccc(C(F)(F)F)cc1
AC50 [14]: > 70 µM (inactive) | AC50 [15]: 8.87 µM (active)

C[C@H]1CCCCO[C@H](CN(C)C(=O)Nc2ccc(C(F)(F)F)cc2)[C@@H](C)CN([C@@H](C)CO)C(=O)c2cc(NS(=O)(=O)c3ccc(F)cc3)ccc2O1
AC50 [14]: > 70 µM (inactive) | AC50 [15]: 4.63 µM (active)

CCN(CC)c1ccc(/C=C/[N+](=O)[O-])cc1
EC50 [1]: 2.99 µM (active)

COc1ccc(-c2nnc(SC(C)C(=O)Nc3nccs3)n2Cc2ccccc2)cc1OC (stereo not given)
EC50 [5]: > 50 µM (active)

Reference: ChEMBL document CHEMBL1201862, “PubChem BioAssay data set” (2004)
